# Measured values published in patent US9926602B2, “Recurrent gene fusions in prostate cancer” (THE REGENTS OF THE UNIVERSITY OF MICHIGAN, priority 2009, dated 2018).
# Tested on: UBE2L3-KRAS fusion protein
# Experiment: Western blot of UBE2L3-KRAS fusion protein with or without bortezomib
# Type: cell-based, human
# Protocol: The prostate cancer cell lines DU145 were transfected with siRNA duplex (Dharmacon, Lafayette, Colo., USA) against UBE2L3 (5′-CCACCGAAGATCACATTTA-3′; SEQ ID NO:1), KRAS (5′-GAAGTTATGGAATTCCTTT-3′; SEQ ID NO:2) or the fusion junction (5′-CCGACCAAGGCCTGCTGAA-3′; SEQ ID NO:3) by oligofectamine (Invitrogen). DU145 transfected with non-targeting siRNA and RWPE cells was used as negative control. Post 48 hours transfection, cells were homogenized in NP40 lysis buffer (50 mM Tris-HCl, 1% NP40, pH 7.4, Sigma, St. Louis, Mo.), and complete proteinase inhibitor mixture (Roche, Indianapolis, Ind.). Ten micrograms of each protein extract were boiled in sample buffer, separated by SDS-PAGE, and transferred onto Polyvinylidene Difluoride membrane (GE Healthcare, Piscataway, N.J.). The membrane was incubated for one hour in blocking buffer [Tris-buffered saline, 0.1% Tween (TBS-T), 5% nonfat dry milk] and incubated overnight at 4° C. with the following antibodies: anti-RAS mouse monoclonal (1:1000 in blocking buffer, Millipore Cat #: 05-516), anti-KRAS rabbit polyclonal (1:1000, Proteintech Group Inc., Cat #: 12063-1-AP) and anti-beta Actin mouse monoclonal (1:5000, Sigma Cat #: A5441) antibodies. Following three washes with TBS-T, the blot was incubated with horseradish peroxidase-conjugated secondary antibody and the signals visualized by enhanced chemiluminescence system as described by the manufacturer (GE Healthcare). To test fusion protein expression in multiple prostate derived cell lines, lysates from DU145, PrEC, RWPE, 22RV1, VCaP, PC3 either untreated or treated with 500 nM bortezomib for 12 hours were used. Bortezomib treated HEK cells over-expressing UBE2L3-KRAS fusion protein was used as a positive control. […] For ERK activation analysis NIH 3T3 cells were starved for 12 hours before immunoblot analysis using phospho erk1/2 antibody. All antibodies for the MAPK signaling proteins were purchased from Cell Signaling Technologies.
structure (smiles),measurement,setting,value
CC(C)C[C@H](NC(=O)[C@H](Cc1ccccc1)NC(=O)c1cnccn1)B(O)O [bortezomib],levels of UBE2L3-KRAS protein expression,DU145 cells incubated with bortezomib,enhanced
same,expression of the UBE2L3-KRAS fusion protein,"HEK293 cells over-expressing UBE2L3-KRAS construct, in the presence of bortezomib",clearly apparent
same,expression of the UBE2L3-KRAS fusion protein,RWPE cells overexpressing UBE2L3-KRAS,required
